Source: PMC9866861, “The More the Better—Investigation of Polymethoxylated N-Carboranyl Quinazolines as Novel Hybrid Breast Cancer Resistance Protein Inhibitors” (Pharmaceutics, 2023)
“Also recorded” adds a separate entry of the source.

Columns and labels:
MDCKII-WT cells = experiment: WST-1 cell proliferation assay (cytotoxicity), MDCKII-WT; type: cell-based, canine; settings: WST-1, 48 h; for IC50: IC50 = 50% reduced cell viability, mean ± SEM, N = 3
Method: (§1) The MDCKII-hABCG2 and MDCKII-WT cells were purchased from Alfred Schinkel (Het Nederlands Kanker Instituut, Amsterdam, The Netherlands) and were cultivated in MEM (minimal essential medium) with Earle’s Salts (2.2 g/L NaHCO3, stable glutamine; Biowest, Nuaillé, France) supplemented with 10% (v/v) fetal calf serum (Life Technology, Karlsruhe, Germany), 1% (v/v) non-essential amino acids (Biowest, Nuaillé, France), 100 U/mL penicillin, and 100 µg/mL streptomycin (Biowest, Nuaillé, France). The cells were grown in a humidified atmosphere (37 °C, 5% CO2) and were sub-cultured every 3 to 4 days using 0.05% trypsin/0.02% EDTA (Biowest, Nuaillé, France), up to a total of 14 passages.
(§2) MDCKII-hABCG2 cells and their parental MDCKII-WT cells were seeded in 96-well plates (TPP, Trasadingen, Switzerland) in a density of 2 × 10^4 cells/mL and 3 × 10^4 cells/mL, respectively. After 48 h, the cells were incubated with increasing concentrations of up to 50 µM of the novel synthesized compounds, with 0.1% Triton X-100 as the positive control and solvent (0.1% DMSO) as the negative control for 48 h. Afterwards, the substance-specific cytotoxicity was determined by the water-soluble tetrazolium-1 (4-[3-(4-iodophenyl)-2-(4-nitro-phenyl)-2H-5-tetrazolio]-1,3-benzene sulfonate; WST-1) assay as previously described. The cell viability was determined by microplate reader at 450 nm (Tecan Sunrise, Crailsheim, Germany). The data of three independent experiments (N = 3) were tested for normality with the Shapiro-Wilk test. The significant differences compared to solvent control were analyzed by one-way ANOVA with the Holm-Šidák post hoc test using SigmaPlot 14.5 (Systec Software, San Jose, CA, USA). The data were normalized against the vehicle control (0.1% DMSO) and were expressed as mean ± SEM.

MDCKII-hABCG2 cells [1] = experiment: WST-1 cell proliferation assay (cytotoxicity), MDCKII-hABCG2; type: cell-based, canine; settings: for IC50: WST-1, 48 h, IC50 = 50% reduced cell viability, mean ± SEM, N = 3; for cell viability: MDCKII-hABCG2, highest concentration 50 µM, 48 h
Method: as §1, §2

human ABCG2 transporter = molecular target: T1, human ABCG2 transporter (Homo sapiens, UniProt Q9UNQ0); experiment: Hoechst 33342 accumulation assay (MDCKII-hABCG2 vs MDCKII-WT); type: cell-based; settings: for intracellular Hoechst 33342 accumulation / inhibition of ABCG2-mediated Hoechst efflux: 0.5 and 1.0 µM compound, Ko143 1 µM, 4 h, vs solvent control; for inhibition of human ABCG2 transporter in Hoechst 33342 accumulation assay: 0.5 µM
T1 construct: expressed in transfected cells; host or cells: MDCKII (Madin-Darby canine kidney) cells transfected with human ABCG2
T1 sequence (Q9UNQ0 1-655): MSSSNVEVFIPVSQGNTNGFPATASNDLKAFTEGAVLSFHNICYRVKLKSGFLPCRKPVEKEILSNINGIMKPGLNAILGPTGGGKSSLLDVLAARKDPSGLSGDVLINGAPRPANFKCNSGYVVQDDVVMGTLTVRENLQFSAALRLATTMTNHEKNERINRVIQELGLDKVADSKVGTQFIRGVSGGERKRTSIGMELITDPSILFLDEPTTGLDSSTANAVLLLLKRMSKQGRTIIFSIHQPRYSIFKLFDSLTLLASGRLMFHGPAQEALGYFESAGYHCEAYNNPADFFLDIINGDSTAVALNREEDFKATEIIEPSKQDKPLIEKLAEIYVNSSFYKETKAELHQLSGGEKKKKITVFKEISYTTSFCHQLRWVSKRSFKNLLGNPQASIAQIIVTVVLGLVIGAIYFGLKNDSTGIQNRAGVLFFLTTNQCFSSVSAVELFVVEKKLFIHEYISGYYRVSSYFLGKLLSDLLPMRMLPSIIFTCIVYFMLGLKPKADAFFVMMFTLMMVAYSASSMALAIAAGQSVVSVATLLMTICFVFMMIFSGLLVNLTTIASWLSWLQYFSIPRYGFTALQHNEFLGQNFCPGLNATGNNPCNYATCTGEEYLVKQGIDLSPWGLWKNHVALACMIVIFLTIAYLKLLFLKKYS
Method: The Hoechst 33342 accumulation assay was used to detect an interaction of the investigated compounds with the human ABCG2 transporter. The assay protocol was adapted from that published by Wassermann et al.. The MDCKII-hABCG2 (2 × 10^4 cells/mL) and MDCKII-WT (3 × 10^4 cells/mL) cells were seeded in 96-well plates and cultured for 72 h. Afterwards, the sub-confluent monolayers were treated with 0.5 µM and 1.0 µM of the investigational compounds or its respective solvent control (0.1% DMSO) for 4 h. […] After 5 and 20 min, the cells were washed twice with ice-cold PBS buffer solution and lyzed with 100 µL/well 0.1% (v/v) SDS/PBS. The intracellular Hoechst 33342 amount was detected by spectrofluorometry (360 nm excitation/465 nm emission wavelengths, Tecan Infinite F200 Pro, Crailsheim, Germany). The examined fluorescence subtracted by the background of non-treated cells was correlated to the protein amount quantified by the bicinchoninic acid assay (BCA, Thermo Scientific, Rockford, IL, USA) following the manufacturer’s instructions. Relative fluorescence units (RFU) were calculated as the relation of fluorescence/mg protein of MDCKII-hABCG2 cells to MDCKII-WT cells, normalized to the solvent control set as 1 and expressed as mean ± SEM. The data from the Hoechst 3342 accumulation assay (five independent experiments N = 5) were tested for normality with the Shapiro-Wilk test. Significant differences compared to the solvent control were analyzed by one-way ANOVA with the Holm-Šidák post hoc test using SigmaPlot 14.5 (Systec Software, San Jose, CA, USA). An inhibition of human ABCG2 efflux transport activity is defined as the significant difference to the solvent control (0.1% DMSO).

MDCKII-hABCG2 cells [2] = experiment: Reversal of ABCG2-mediated mitoxantrone resistance (WST-1); type: cell-based, canine; settings: for Left-Shift Factor: MDCKII-hABCG2, MXN + 1 µM compound, (IC50 minus SEM of MXN alone) by (IC50 plus SEM of combination)
Method: Afterwards, the WST-1 assay was performed as described. […] All data were normalized against the vehicle control and were expressed as mean ± SEM, calculated from at least three independent experiments.

Row | inhibition of human ABCG2 transporter in Hoechst 33342 accumulation assay (human ABCG2 transporter) | Substance | IC50 (MDCKII-WT cells) [µM] | IC50 (MDCKII-hABCG2 cells [1]) [µM] | intracellular Hoechst 33342 accumulation / inhibition of ABCG2-mediated Hoechst efflux (human ABCG2 transporter) | decreased cell viability (MDCKII-hABCG2 cells [1]; MDCKII-hABCG2, WST-1, 48 h, up to 50 µM) | reversal of MXN resistance (MDCKII-hABCG2 cells [2]; MDCKII-hABCG2, 1 µM compound with MXN) | Left-Shift Factor (MDCKII-hABCG2 cells [2]) | cell viability (MDCKII-hABCG2 cells [1]) [%] | decreased cell viability (MDCKII-WT cells; MDCKII-WT) [%]
1 |  | N-(closo-1,7-dicarbadodecaboran(12)-9-yl)-2-(3,4,5-trimethoxyphenyl)-quinazolin-4-amine [QCd] | > 50 | > 50 | did not affect the human ABCG2-mediated Hoechst efflux |  |  |  |  | 
2 | inhibited the human ABCG2 transporter | N-(closo-1,7-dicarbadodecaboran(12)-9-yl)-2-(3,4-dimethoxyphenyl)-quinazolin-4-amine [QCc] | > 50 | > 50 | the only compound exhibiting inhibition within the tested concentration range | about 40% | able to reverse MXN resistance | 5.4-fold |  | 
3 |  | N-(closo-1,7-dicarbadodecaboran(12)-9-yl)-2-(4-methoxyphenyl)-quinazolin-4-amine [QCb] | 44.17 ± 0.174 | > 10 | did not affect the human ABCG2-mediated Hoechst efflux |  |  |  | 30 | 
4 |  | N-(closo-1,7-dicarbadodecaboran(12)-9-yl)-2-phenylquinazolin-4-amine [QCa] | 43.23 ± 0.159 | > 10 | did not affect the human ABCG2-mediated Hoechst efflux |  |  |  | 30 | 
5 | inhibited the human ABCG2 transporter | N-(closo-1,7-dicarbadodecaboran(12)-9-yl)-6,7-dimethoxy-2-(3,4,5-trimethoxyphenyl)-quinazolin-4-amine [DMQCd] | > 50 | > 50 | strongest inhibition at 0.5 µM with a comparable level as the reference Ko143 |  |  |  |  | 
6 |  | N-(closo-1,7-dicarbadodecaboran(12)-9-yl)-6,7-dimethoxy-2-(3,4-dimethoxy-phenyl)-quinazolin-4-amine [DMQCc] | > 50 | > 50 | only marginal increases in Hoechst 33342 accumulation; also recorded: no significant inhibition |  |  | 9.8-fold |  | 
7 |  | N-(closo-1,7-dicarbadodecaboran(12)-9-yl)-6,7-dimethoxy-2-(4-methoxy-phenyl)quinazolin-4-amine [DMQCb] | > 25 | > 25 | only marginal increases in Hoechst 33342 accumulation; also recorded: no significant inhibition |  |  | 7.2-fold |  | ~30
8 |  | N-(closo-1,7-dicarbadodecaboran(12)-9-yl)-6,7-dimethoxy-2-phenyl-quinazolin-4-amine [DMQCa] | > 50 | > 50 | improved inhibitory potency at 1.0 µM |  |  | 4.3-fold |  | 
